In patent US20060178513A1, “Pyridinylanilides” (priority 2003, published 2006) one finds pest or weed control, chromatographic logP and Efficacy in % data, which are given here for 26 compounds.

Where two headings read alike, the source gives them in different places.

One data set deals with Podosphaera leucotricha. The data set is described as follows: Podosphaera test (apple)/protective. As to conditions: topical, 240 h, apple plants, protective, application rate 100 g/ha, evaluation 10 days after inoculation, read-out: Efficacy in %. The data set is classed as in vivo. As for the experimental part:
(§1) [table] To produce a suitable preparation of active compound, 1 part by weight of active compound is mixed with the stated amounts of solvent and emulsifier, and the concentrate is diluted with water to the desired concentration. To test for protective activity, young plants are sprayed with the preparation of active compound at the stated application rate. After the spray coating has dried on, the plants are inoculated with an aqueous spore suspension of the apple mildew pathogen Podosphaera leucotricha. The plants are then placed in a greenhouse at about 23° C. and a relative atmospheric humidity of about 70%. Evaluation is carried out 10 days after the inoculation. 0% means an efficacy which corresponds to that of the control, whereas an efficacy of 100% means that no infection is observed.

Data set [1] can be described thus: logP determination by HPLC (reversed-phase C 18), EEC Directive 79/831 Annex V.A8. In kind it is physicochemical. As for the experimental part: The logP values given in the Preparation Examples were determined in accordance with EEC Directive 79/831 Annex V.A8 by HPLC (High Performance Liquid Chromatography) using a reversed-phase column (C 18). Temperature: 43° C. Mobile phases for the determination in the acidic range: 0.1% aqueous phosphoric acid, acetonitrile; linear gradient from 10% acetonitrile to 90% acetonitrile. Calibration was carried out using straight-chain alkan-2-ones (having 3 to 16 carbon atoms) with known logp values (determination of the logp values by the retention times using linear interpolation between two successive alkanones).

The subject of the next data set is Puccinia recondita. The data set is described as follows: Puccinia test (wheat)/protective. The settings on record: wheat plants, protective, application rate 500 g/ha, evaluation 10 days after inoculation. In kind it is in vivo. As for the experimental part:
as §1, with “sprayed” for “inoculated”, “a conidia” for “an aqueous spore”, “Puccinia recondita. The plants remain in an incubation cabin at 20° C. and 100% relative atmospheric humidity for 48 hours.” for “the apple mildew pathogen Podosphaera leucotricha.”, “a temperature of approximately 20°” for “about 23°”, “80% to promote the development of rust pustules.” for “about 70%.”

A further data set deals with Pyrenophora teres. The data set is described as follows: Pyrenophora teres test (barley)/protective. In kind it is in vivo. The settings on record: barley plants, protective, application rate 500 g/ha, evaluation 8 days after inoculation. The method, then:
[table] To produce a suitable preparation of active compound, 1 part by weight of active compound is mixed with the stated amount of solvent and emulsifier, and the concentrate is diluted with water to the desired concentration. To test for protective activity, young plants are sprayed with the preparation of active compound at the stated application rate. After the spray coating has dried on, the plants are sprayed with a conidia suspension of Pyrenophora teres. The plants remain in an incubation cabin at 20° C. and 100% relative atmospheric humidity for 48 hours. The plants are then placed in a greenhouse at a temperature of about 20° C. and a relative atmospheric humidity of about 80%. Evaluation is carried out 8 days after the inoculation. 0% means an efficacy which corresponds to that of the control, whereas an efficacy of 100% means that no infection is observed.

The test system of the next data set is Alternaria solani. The data set is described as follows: Alternaria test (tomato)/protective. In kind it is in vivo. As to conditions: tomato plants, protective, application rate 750 g/ha, evaluation 7 days after inoculation. The method, then:
[table] To produce a suitable preparation of active compound, 1 part by weight of active compound is mixed with the stated amounts of solvent and emulsifier, and the concentrate is diluted with water to the desired concentration. To test for protective activity, young tomato plants are sprayed with the preparation of active compound at the stated application rate. 1 day after the treatment, the plants are inoculated with a spore suspension of Alternaria solani and then remain at 100% rel. humidity and 20° C. for 24 h. The plants then remain at 96% rel. atmospheric humidity and a temperature of 20° C. Evaluation was carried out 7 days after the inoculation. 0% means an efficacy which corresponds to that of the control, whereas an efficacy of 100% means that no infection is observed.

The next data set has as its system Venturia inaequalis. The data set is described as follows: Venturia Test (Apple)/protective. In kind it is in vivo. The settings on record: topical, 240 h, apple plants, protective, application rate 100 g/ha, evaluation 10 days after inoculation, read-out: Efficacy in %. As for the experimental part: [table] To produce a suitable preparation of the active compound, 1 part by weight of active compound is mixed with the stated amounts of solvents and emulsifier, and the concentrate is diluted with water to the desired concentration. To test for protective activity, young plants are sprayed with the preparation of active compound at the stated application rate. After the spray coating has dried on, the plants are inoculated with an aqueous conidia suspension of the apple scab pathogen Venturia inaequalis and then remain in an incubation cabin at about 20° C. and 100% relative atmospheric humidity for 1 day. The plants are then placed in a greenhouse at about 21° C. and a relative atmospheric humidity of about 90%. Evaluation is carried out 10 days after the inoculation. 0% means an efficacy which corresponds to that of the control, whereas an efficacy of 100% means that no infection is observed.

The mark [2] stands for this setting: reversed-phase HPLC column (C 18), HPLC, reversed-phase C 18, 43° C., acidic range (0.1% aqueous phosphoric acid/acetonitrile), read-out: logP.
[3] abbreviates: reversed-phase HPLC column (C 18), pH 2.3, HPLC, reversed-phase C 18, 43° C., read-out: log P (pH 2.3).

With `Cn1cc(C(=O)Nc2ccccc2-c2ccc(Cl)nc2)c(C(F)F)n1` [1-6-7], the pest or weed control at 100 g/ha with Podosphaera leucotricha was 98%. Further, in data set [1] (setting [2]), the chromatographic logP is 2.1.
Consider `Cc1nn(C)c(F)c1C(=O)Nc1ccccc1-c1ccnc(Br)c1` [1-7-4], for which the chromatographic logP in data set [1] (setting [2]) amounted to 2.02. The Efficacy in % with Puccinia recondita was 100%; in the data set with Pyrenophora teres it was 93%.
Consider `O=C(Nc1ccccc1-c1ccnc(Br)c1)c1ccccc1C(F)(F)F` [1-7-5], for which the chromatographic logP in data set [1] (setting [2]) amounted to 2.85. Also, the Efficacy in % in the data set with Pyrenophora teres is listed as 93%.
As to `Cn1cc(C(=O)Nc2ccccc2-c2ccnc(Br)c2)c(C(F)F)n1` [1-7-6], the Efficacy in % came out at 95% with Alternaria solani, 100% in the data set on Puccinia recondita and 93% in the data set on Pyrenophora teres. In data set [1] (setting [2]), the chromatographic logP is 2.13.
As to `Cn1nc(C(F)(F)F)c(C(=O)Nc2ccccc2-c2cc(Cl)nc(Cl)c2)c1F` [1-7-9], in the data set with Venturia inaequalis, the pest or weed control at 100 g/ha came out at 100%.
For the compound `Cc1nc(C(F)(F)F)c(C(=O)Nc2ccccc2-c2cc(Cl)nc(Cl)c2)s1` [1-7-10], the pest or weed control at 100 g/ha in the data set with Podosphaera leucotricha and in the data set on Venturia inaequalis was 100% throughout. Moreover, the Efficacy in % with Alternaria solani worked out at 100%. For the same compound, the chromatographic logP in data set [1] (setting [2]) was 3.27.
As for `O=C(Nc1ccccc1-c1ncc(C(F)(F)F)cc1Cl)c1ccccc1C(F)(F)F` [1-8-1], the pest or weed control at 100 g/ha with Podosphaera leucotricha and in the data set on Venturia inaequalis was 100% throughout. Moreover, the chromatographic logP in data set [1] (setting [2]) is 3.59; in data set [1] (setting [3]), 3.58. Also, in the data set with Puccinia recondita, the Efficacy in % turned out to be 100%.
For the compound `Cc1occc1C(=O)Nc1ccccc1-c1ncc(C(F)(F)F)cc1Cl` [1-8-2], the Efficacy in % with Alternaria solani, in the data set with Puccinia recondita and in the data set on Pyrenophora teres was 100% throughout. Further, the chromatographic logP in data set [1] (setting [2]) was determined as 3.44.
With `Cc1ccsc1C(=O)Nc1ccccc1-c1ncc(C(F)(F)F)cc1Cl` [1-8-3], the pest or weed control at 100 g/ha in the data set with Podosphaera leucotricha and in the data set with Venturia inaequalis was 100% each time. In addition, the Efficacy in % in the data set with Alternaria solani is 95%; with Puccinia recondita it was 100%; with Pyrenophora teres, 100%. Further, in data set [1] (setting [2]), the chromatographic logP is 3.83.
In the case of `O=C(Nc1ccccc1-c1ccc(C(F)(F)F)cn1)c1ccccc1C(F)(F)F` [1-8-9], the pest or weed control at 100 g/ha with Podosphaera leucotricha turned out to be 97%. The compound further yielded an Efficacy in % with Alternaria solani of 95%. For the same compound, the chromatographic logP in data set [1] (setting [2]) came to 4.13.
For the compound `O=C(Nc1ccccc1-c1ccc(Cl)cn1)c1cccnc1Cl` [1-8-10], the pest or weed control at 100 g/ha in the data set with Podosphaera leucotricha and in the data set on Venturia inaequalis was 100% throughout. For the same compound, the chromatographic logP in data set [1] (setting [2]) was determined as 2.95. Further, the Efficacy in % with Puccinia recondita was determined as 94%; with Pyrenophora teres, 100%.
On to `Cc1nn(C)c(F)c1C(=O)Nc1ccccc1-c1ccc(Cl)cn1` [1-8-11], for which the pest or weed control at 100 g/ha with Podosphaera leucotricha came to 95%; with Venturia inaequalis, 100%. The chromatographic logP in data set [1] (setting [2]) was 3.06.
For `O=C(Nc1ccccc1-c1ccc(Cl)cn1)c1ccccc1C(F)(F)F` [1-8-12], in that order: 92%, 100% and 4.
With `Cn1cc(C(=O)Nc2ccccc2-c2ccc(Cl)cn2)c(C(F)F)n1` [1-8-14], the chromatographic logP in data set [1] (setting [2]) was 3.05. Moreover, in the data set with Venturia inaequalis, the pest or weed control at 100 g/ha worked out at 100%. Further, in the data set with Pyrenophora teres, the Efficacy in % is on record as 94%.
Consider `CON=Cc1ccc(-c2ccccc2NC(=O)c2cccnc2Cl)nc1` [1-8-15, 2-chloro-N-{2-[5-(E)methoxyimino-methyl)-pyridin-2-yl]-phenyl}-nicotinamide], for which the chromatographic logP in data set [1] (setting [2]) and in data set [1] (setting [3]) was 2.95 in each case.
Turning to `O=C(Nc1ccccc1-c1ncc(C(F)(F)F)cc1Cl)c1ccccc1Cl` [1-8-20], the pest or weed control at 100 g/ha in the data set on Podosphaera leucotricha was found to be 100%. The chromatographic logP in data set [1] (setting [2]) was 3.45.
For `O=C(Nc1ccccc1-c1ncc(C(F)(F)F)cc1Cl)c1ccccc1Br` [1-8-21], in that order: 100% and 3.49.
For the compound `O=C(Nc1ccccc1-c1ncc(C(F)(F)F)cc1Cl)C1=C(C(F)(F)F)OCCS1` [1-8-25], in data set [1] (setting [2]), the chromatographic logP worked out at 3.43. In addition, in the data set with Venturia inaequalis, the pest or weed control at 100 g/ha is 99%.
On to `Cn1cc(C(=O)Nc2ccccc2-c2ncc(C(F)(F)F)cc2Cl)c(C(F)F)n1` [1-8-27], for which the pest or weed control at 100 g/ha in the data set with Podosphaera leucotricha amounted to 97%; in the data set with Venturia inaequalis it was 100%. Also, the chromatographic logP in data set [1] (setting [2]) is 2.91.
For `Cc1nc(C(F)(F)F)c(C(=O)Nc2ccccc2-c2ncc(C(F)(F)F)cc2Cl)s1` [1-8-28], in that order: 96%, 98% and 3.48.
Consider `Cn1cc(C(=O)Nc2ccccc2-c2ncc(C(F)(F)F)cc2Cl)c(C(F)(F)F)n1` [1-8-29], for which the chromatographic logP in data set [1] (setting [2]) stood at 3.13. Moreover, the pest or weed control at 100 g/ha in the data set with Venturia inaequalis came to 98%.
For `Cn1cc(C(=O)Nc2ccccc2-c2ncc(C(F)(F)F)cc2Cl)c(I)n1` [1-8-30], in that order: 2.92 and 92%.
For `Nc1ccccc1-c1ncc(C(F)(F)F)cc1Cl` [III-1, 2-[3-chloro-5-(trifluoromethyl)-2-pyridinyl]aniline], the chromatographic logP in data set [1] (setting [3]) was 2.79.
For `CO/N=C/c1ccc(-c2ccccc2N)nc1` [III-2, 6-(2-amino-phenyl)-pyridine-3-carbaldehyde (E)-O-methyl-oxime], in data set [1] (setting [3]), the chromatographic logP is 1.59.
With `O=C(Nc1ccccc1I)c1ccccc1C(F)(F)F` [IV-1], in data set [1] (setting [3]), the chromatographic logP was 2.98.
In data set [1] (pH 2.3), `CO/N=C/c1ccc(Br)nc1` [VII-1, 6-bromo-pyridine-3-carbaldehyde (E)-O-methyl-oxime] had a chromatographic logP of 2.16.
